Results published in US20210198277A1, “AMINE-SUBSTITUTED ARYL OR HETEROARYL COMPOUNDS” (Epizyme, Inc., priority 2016, published 2021).

How the values were obtained:
[1] = target: T1, EHMT2 (Homo sapiens, UniProt Q96KQ7); assay: MDA-MB-231 H3K9me2 in-cell Western assay (EHMT2 ICW); assay type: cell-based; conditions: Table III; MDA-MB-231 H3K9me2 in-cell Western; read-out: EHMT2 ICW (IC50 μM)
T1 construct: host or cells: MDA-MB-231
T1 sequence (Q96KQ7 1-1210): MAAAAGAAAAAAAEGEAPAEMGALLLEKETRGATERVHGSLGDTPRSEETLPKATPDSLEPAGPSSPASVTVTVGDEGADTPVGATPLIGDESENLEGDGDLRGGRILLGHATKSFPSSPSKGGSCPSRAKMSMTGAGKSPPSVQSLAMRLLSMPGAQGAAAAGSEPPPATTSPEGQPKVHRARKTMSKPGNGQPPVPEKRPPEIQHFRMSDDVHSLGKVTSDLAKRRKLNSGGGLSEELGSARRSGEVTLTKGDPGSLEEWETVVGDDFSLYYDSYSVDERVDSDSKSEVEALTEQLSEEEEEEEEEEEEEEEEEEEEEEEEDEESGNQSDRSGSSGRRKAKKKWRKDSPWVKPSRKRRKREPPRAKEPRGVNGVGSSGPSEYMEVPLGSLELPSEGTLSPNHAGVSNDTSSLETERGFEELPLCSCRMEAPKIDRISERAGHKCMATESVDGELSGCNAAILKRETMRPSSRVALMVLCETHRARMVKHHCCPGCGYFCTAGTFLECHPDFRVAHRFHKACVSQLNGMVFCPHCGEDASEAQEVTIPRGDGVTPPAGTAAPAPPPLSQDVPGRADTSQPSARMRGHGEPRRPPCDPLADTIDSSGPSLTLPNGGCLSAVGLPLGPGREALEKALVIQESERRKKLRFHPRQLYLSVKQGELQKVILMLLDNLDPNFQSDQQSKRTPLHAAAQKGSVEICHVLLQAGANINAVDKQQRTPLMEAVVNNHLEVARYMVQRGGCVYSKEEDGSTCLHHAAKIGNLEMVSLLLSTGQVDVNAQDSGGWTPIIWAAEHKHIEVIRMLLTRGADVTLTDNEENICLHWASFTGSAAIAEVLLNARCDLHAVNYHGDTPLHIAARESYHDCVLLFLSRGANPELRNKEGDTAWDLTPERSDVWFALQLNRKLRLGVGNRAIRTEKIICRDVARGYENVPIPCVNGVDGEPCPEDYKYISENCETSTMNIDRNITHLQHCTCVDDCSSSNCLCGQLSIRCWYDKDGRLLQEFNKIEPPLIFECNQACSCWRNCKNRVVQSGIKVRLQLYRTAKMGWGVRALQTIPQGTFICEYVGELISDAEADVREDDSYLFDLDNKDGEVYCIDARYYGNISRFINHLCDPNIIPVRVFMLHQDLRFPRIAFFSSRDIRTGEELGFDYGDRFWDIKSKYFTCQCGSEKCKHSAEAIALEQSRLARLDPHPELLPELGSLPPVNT
Description: RPMI/Glutamax medium, Penicillin-Streptomycin, Heat Inactivated Fetal Bovine Serum, and D-PBS were purchased from Life Technologies (Grand Island, N.Y., USA). Odyssey blocking buffer, 800CW goat anti-mouse IgG (H+L) antibody, and Licor Odyssey Infrared Scanner were purchased from Licor Biosciences, Lincoln, Nebr., USA. […] 16% Paraformaldehyde was purchased from Electron Microscopy Sciences, Hatfield, Pa., USA).MDA-MB-231 cells were maintained in complete growth medium (RPMI supplemented with 10% v/v heat inactivated fetal bovine serum) and cultured at 37° C. under 5% CO2. UNC0638 was purchased from Sigma-Aldrich (St. Louis, Mo., USA).
Compound (100 nL) was added directly to 384-well cell plate. MDA-MB-231 cells (ATCC) were seeded in assay medium (RPMI/Glutamax supplemented with 10% v/v heat inactivated fetal bovine serum and 1% Penicillin/Streptomycin, Life Technologies) at a concentration of 3,000 cells per well to a Poly-D-Lysine coated 384-well cell culture plate with 50 μL per well. […] Plates were incubated at room temperature for 30 minutes and then incubated at 37° C., 5% CO2 for additional 48 hours. After the incubation, 50 μL per well of 8% paraformaldehyde (Electron Microscopy Sciences) in PBS was added to the plates and incubated at room temperature for 20 minutes. […] Next, 60 μL per well of Odyssey blocking buffer (Licor Biosciences) was added to each plate and incubated for 1 hour at room temperature. Blocking buffer was removed and 20 μL of monoclonal primary antibody α-H3K9me2 (Abcam) diluted 1:800 in Odyssey buffer with 0.1% Tween 20 (v/v) were added and plates were incubated overnight (16 hours) at 4° C. Plates were washed 5 times with 100 μL per well of wash buffer. Next 20 μL per well of secondary antibody was added (1:500 800CW donkey anti-mouse IgG (H+L) antibody (Licor Biosciences), 1:1000 DRAQ5 (Cell Signaling Technology) in Odyssey buffer with 0.1% Tween 20 (v/v)) and incubated for 1 hour at room temperature. The plates were washed 5 times with 100 μL per well wash buffer then 2 times with 100 μL per well of water. Plates were allowed to dry at room temperature then imaged on a Licor Odyssey Infrared Scanner (Licor Biosciences) which measured integrated intensity at 700 nm and 800 nm wavelengths. Both 700 and 800 channels were scanned.
First, the ratio for each well was determined by:
The average of the ratio values for each well was calculated and used to determine the percent inhibition for each test well in the plate. Control compound was serially diluted three-fold in DMSO for a total of 10 test concentrations beginning at 1 μM. Percent inhibition was calculated as: […]
IC50 curves were generated using triplicate wells per concentration of compound. […] IC50 values were calculated using a non-linear regression (variable slope-four parameter fit model) with by the following formula: […]

[2] = target: T2, human EHMT2 913-1193 (Homo sapiens, UniProt Q96KQ7); assay: EHMT2 enzyme assay on histone peptide substrate (EHMT2 PEP); assay type: biochemical; conditions: Table III; read-out: EHMT2 PEP (IC50 μM)
T2 construct: recombinant purified human EHMT2 913-1193, Viva; purchased Viva
T2 sequence (Q96KQ7 913-1193): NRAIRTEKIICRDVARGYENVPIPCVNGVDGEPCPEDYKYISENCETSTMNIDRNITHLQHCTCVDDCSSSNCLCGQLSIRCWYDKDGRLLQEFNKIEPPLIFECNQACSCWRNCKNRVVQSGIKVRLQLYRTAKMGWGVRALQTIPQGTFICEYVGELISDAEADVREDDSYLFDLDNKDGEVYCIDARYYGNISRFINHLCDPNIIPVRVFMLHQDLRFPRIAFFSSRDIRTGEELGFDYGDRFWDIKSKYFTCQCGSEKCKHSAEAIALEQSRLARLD
Experimental: Recombinant purified human EHMT2 913-1193 (55 μM) synthesized by Viva was used for all experiments. Biotinylated histone peptides were synthesized by Biopeptide and HPLC-purified to >95% purity. Streptavidin Flashplates and seals were purchased from PerkinElmer and 384 Well V-bottom Polypropylene Plates were from Greiner. ^3H-labeled S-adenosylmethionine (^3H-SAM) was obtained from American Radiolabeled Chemicals with a specific activity of 80 Ci/mmol. Unlabeled SAM and S-adenosylhomocysteine (SAH) were obtained from American Radiolabeled Chemicals and Sigma-Aldrich respectively. Flashplates were washed in a Biotek ELx-405 with 0.1% Tween. 384-well Flashplates and 96-well filter binding plates were read on a TopCount microplate reader (PerkinElmer). Compound serial dilutions were performed on a Freedom EVO (Tecan) and spotted into assay plates using a Thermo Scientific Matrix PlateMate (Thermo Scientific). Reagent cocktails were added by Multidrop Combi (Thermo Scientific).
General Procedure for EHMT2 Enzyme Assay on Histone Peptide Substrate.
10-point curves of test compounds were made on a Freedom EVO (Tecan) using serial 3-fold dilutions in DMSO, beginning at 2.5 mM (final top concentration of compound was 50 μM and the DMSO was 2%). A 1 μL aliquot of the inhibitor dilution series was spotted in a polypropylene 384-well V-bottom plate (Greiner) using a Thermo Scientific Matrix PlateMate (Thermo Scientific). […] Compounds were incubated for 30 minutes with 40 μL per well of 0.031 nM EHMT2 (recombinant purified human EHMT2 913-1193, Viva) in 1× assay buffer (20 mM Bicine [pH 7.5], 0.002% Tween 20, 0.005% Bovine Skin Gelatin and 1 mM TCEP). […] Reactions were incubated for 60 minutes at room temperature and quenched with 10 μL per well of 400 μM unlabeled SAM, then transferred to a 384-well streptavidin Flashplate (PerkinElmer) and washed in a Biotek ELx-405 well washer with 0.1% Tween after 60 minutes. 384-well Flashplates were read on a TopCount microplate reader (PerkinElmer).

Row | IC50 [1] [µM] | IC50 [2] [µM] | SMILES
1 | 0.1 to 1 | < 0.1 | CNc1ccnc(Nc2ccc(OC)c(OCCCN3CCC3)c2)n1 [Compound 281]
2 | 0.1 to 1 | – | CNc1ccnc(Nc2ccc(OC)c(OCCCN3CCCC3)c2)n1 [Compound 399]
